The numbers were not newly measured in US20040139488A1, “Compositions and methods for enhancing disease resistance in fish” (priority 2002, published 2004), which cites them from elsewhere.

The test system of one series is E. ictaluri. The conditions noted are these: synthesized, HPLC-purified peptide, in vitro.
The subject of the next series is Aeromonas salmonicida. As to conditions: synthesized, HPLC-purified peptide, in vitro.

“cecropin B: mature cecropin B from Hyalophora cecropia (SEQ ID NO:19), synthesized peptide purified by high-pressure liquid chromatography (KWKVFKKIEKMGRNIRNGIVKAGPAIAVLGEAKALG; listed as Hyalophora cecropia)”: the “bactericidal activity against E. ictaluri” value in the series with E. ictaluri is reported as “possess the predicted bactericidal activity”. Further, the “bactericidal activity against Aeromonas salmonicida” value with Aeromonas salmonicida was “possess the predicted bactericidal activity”.
